Laboratory results from article PMC11576293, “New series of 4,6-diaryl pyrimidines: facile synthesis and antiproliferative activity as dual EGFR/VEGFR-2 inhibitors” (Frontiers in Chemistry, 2024).

Assays:
Assay in all cases: NCI-60 single-dose screen
Format in all cases: cell-based
HCC-2998 = conditions: Homo sapiens, single dose 10 µM, '-' = no inhibition, read-out: % Growth Inhibition
Outline: (§1)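 Was run as a one-dose (10 μM) screen by the NCI Developmental Therapeutics Program, covering 60 tumour cell lines from nine cancer types including renal, melanoma and CNS.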

SR = conditions: Homo sapiens, single dose 10 µM, '-' = no inhibition, read-out: % Growth Inhibition
Outline: as §1

NCI/ADR-RES = conditions: Homo sapiens, single dose 10 µM, '-' = no inhibition, read-out: % Growth Inhibition
Outline: as §1

LOX IMVI = conditions: Homo sapiens, single dose 10 µM, '-' = no inhibition, read-out: % Growth Inhibition
Outline: as §1

U251 = conditions: Homo sapiens, U-251, single dose 10 µM, '-' = no inhibition, read-out: % Growth Inhibition
Outline: as §1

PC-3 = conditions: Homo sapiens, single dose 10 µM, '-' = no inhibition, read-out: % Growth Inhibition
Outline: as §1

SK-MEL-5 = conditions: Homo sapiens, single dose 10 µM, '-' = no inhibition, read-out: % Growth Inhibition
Outline: as §1

CCRF-CEM = conditions: Homo sapiens, single dose 10 µM, '-' = no inhibition, read-out: % Growth Inhibition
Outline: as §1

SK-MEL-28 = conditions: Homo sapiens, single dose 10 µM, '-' = no inhibition, read-out: % Growth Inhibition
Outline: as §1

A498 = conditions: Homo sapiens, single dose 10 µM, '-' = no inhibition, read-out: % Growth Inhibition
Outline: as §1

M14 = conditions: Homo sapiens, single dose 10 µM, '-' = no inhibition, read-out: % Growth Inhibition
Outline: as §1

HS 578T = conditions: Homo sapiens, single dose 10 µM, '-' = no inhibition, read-out: % Growth Inhibition
Outline: as §1

MALME-3M = conditions: Homo sapiens, single dose 10 µM, '-' = no inhibition, read-out: % Growth Inhibition
Outline: as §1

KM12 = conditions: Homo sapiens, single dose 10 µM, '-' = no inhibition, read-out: % Growth Inhibition
Outline: as §1

UACC-62 = conditions: Homo sapiens, single dose 10 µM, '-' = no inhibition, read-out: % Growth Inhibition
Outline: as §1

NCI-H460 = conditions: Homo sapiens, single dose 10 µM, '-' = no inhibition, read-out: % Growth Inhibition
Outline: as §1

A549/ATCC = conditions: Homo sapiens, single dose 10 µM, '-' = no inhibition, read-out: % Growth Inhibition
Outline: as §1

HOP-62 = conditions: Homo sapiens, single dose 10 µM, '-' = no inhibition, read-out: % Growth Inhibition
Outline: as §1

HCT-15 = conditions: Homo sapiens, single dose 10 µM, '-' = no inhibition, read-out: % Growth Inhibition
Outline: as §1

SF-539 = conditions: Homo sapiens, single dose 10 µM, '-' = no inhibition, read-out: % Growth Inhibition
Outline: as §1

SW-620 = conditions: Homo sapiens, single dose 10 µM, '-' = no inhibition, read-out: % Growth Inhibition
Outline: as §1

NCI-H522 = conditions: Homo sapiens, single dose 10 µM, '-' = no inhibition, read-out: % Growth Inhibition
Outline: as §1

SK-OV-3 = conditions: Homo sapiens, single dose 10 µM, '-' = no inhibition, read-out: % Growth Inhibition
Outline: as §1

786-0 = conditions: Homo sapiens, single dose 10 µM, '-' = no inhibition, read-out: % Growth Inhibition
Outline: as §1

T-47D = conditions: Homo sapiens, T47D, single dose 10 µM, '-' = no inhibition, read-out: % Growth Inhibition
Outline: as §1

MDA-MB-468 = conditions: Homo sapiens, single dose 10 µM, '-' = no inhibition, read-out: % Growth Inhibition
Outline: as §1

SF-268 = conditions: Homo sapiens, single dose 10 µM, '-' = no inhibition, read-out: % Growth Inhibition
Outline: as §1

IGROV1 = conditions: Homo sapiens, IGROV-1, single dose 10 µM, '-' = no inhibition, read-out: % Growth Inhibition
Outline: as §1

HOP-92 = conditions: Homo sapiens, single dose 10 µM, '-' = no inhibition, read-out: % Growth Inhibition
Outline: as §1

COLO 205 = conditions: Homo sapiens, single dose 10 µM, '-' = no inhibition, read-out: % Growth Inhibition
Outline: as §1

CAKI-1 = conditions: Homo sapiens, single dose 10 µM, '-' = no inhibition, read-out: % Growth Inhibition
Outline: as §1

NCI-H322M = conditions: Homo sapiens, single dose 10 µM, '-' = no inhibition, read-out: % Growth Inhibition
Outline: as §1

EKVX = conditions: Homo sapiens, single dose 10 µM, '-' = no inhibition, read-out: % Growth Inhibition
Outline: as §1

UO-31 = conditions: Homo sapiens, single dose 10 µM, '-' = no inhibition, read-out: % Growth Inhibition
Outline: as §1

OVCAR-4 = conditions: Homo sapiens, single dose 10 µM, '-' = no inhibition, read-out: % Growth Inhibition
Outline: as §1

RPMI-8226 = conditions: Homo sapiens, single dose 10 µM, '-' = no inhibition, read-out: % Growth Inhibition
Outline: as §1

NCI-H23 = conditions: Homo sapiens, single dose 10 µM, '-' = no inhibition, read-out: % Growth Inhibition
Outline: as §1

SNB-75 = conditions: Homo sapiens, single dose 10 µM, '-' = no inhibition, read-out: % Growth Inhibition
Outline: as §1

RXF 393 = conditions: Homo sapiens, single dose 10 µM, '-' = no inhibition, read-out: % Growth Inhibition
Outline: as §1

SNB-19 = conditions: Homo sapiens, single dose 10 µM, '-' = no inhibition, read-out: % Growth Inhibition
Outline: as §1

HCT-116 = conditions: Homo sapiens, single dose 10 µM, '-' = no inhibition, read-out: % Growth Inhibition
Outline: as §1

MCF7 = conditions: Homo sapiens, single dose 10 µM, '-' = no inhibition, read-out: % Growth Inhibition
Outline: as §1

SK-MEL-2 = conditions: Homo sapiens, single dose 10 µM, '-' = no inhibition, read-out: % Growth Inhibition
Outline: as §1

OVCAR-5 = conditions: Homo sapiens, single dose 10 µM, '-' = no inhibition, read-out: % Growth Inhibition
Outline: as §1

OVCAR-3 = conditions: Homo sapiens, single dose 10 µM, '-' = no inhibition, read-out: % Growth Inhibition
Outline: as §1

SF-295 = conditions: Homo sapiens, single dose 10 µM, '-' = no inhibition, read-out: % Growth Inhibition
Outline: as §1

DU-145 = conditions: Homo sapiens, single dose 10 µM, '-' = no inhibition, read-out: % Growth Inhibition
Outline: as §1

ACHN 1 = conditions: Homo sapiens, single dose 10 µM, '-' = no inhibition, read-out: % Growth Inhibition
Outline: as §1

With C=CCSc1nc(-c2ccc(Cl)cc2)cc(-c2ccc(OC)c(OC)c2)n1 [Compound 27, 2-(Allylthio)-4-(4-chlorophenyl)-6-(3,4-dimethoxyphenyl)pyrimidine] as the molecule, how does the inhibition at 10 µM (HCC-2998) read?
Its inhibition at 10 µM is under 0%.

What about the inhibition at 10 µM (SR) of the same molecule?
Its inhibition at 10 µM is 30.3%.

And the inhibition at 10 µM (NCI/ADR-RES)?
The inhibition at 10 µM was 21.8%.

And the inhibition at 10 µM (LOX IMVI)?
Its inhibition at 10 µM is 7.11%.

And the inhibition at 10 µM (U251)?
Its inhibition at 10 µM is under 0%.

And the inhibition at 10 µM (PC-3)?
Its inhibition at 10 µM is 15.7%.

And the inhibition at 10 µM (SK-MEL-5)?
The inhibition at 10 µM was 12.2%.

What about the inhibition at 10 µM (CCRF-CEM) of the same molecule?
The inhibition at 10 µM was 13.1%.

What about the inhibition at 10 µM (SK-MEL-28) of the same molecule?
The inhibition at 10 µM was under 0%.

What about the inhibition at 10 µM (A498) of the same molecule?
The inhibition at 10 µM was under 0%.

And the inhibition at 10 µM (M14)?
The inhibition at 10 µM was 0.06%.

And the inhibition at 10 µM (HS 578T)?
Its inhibition at 10 µM is under 0%.

And the inhibition at 10 µM (MALME-3M)?
The inhibition at 10 µM was under 0%.

And the inhibition at 10 µM (KM12)?
The inhibition at 10 µM was 3.43%.

And the inhibition at 10 µM (UACC-62)?
Its inhibition at 10 µM is 26%.

And the inhibition at 10 µM (NCI-H460)?
The inhibition at 10 µM was 6.7%.

What about the inhibition at 10 µM (A549/ATCC) of the same molecule?
Its inhibition at 10 µM is 12.3%.

And the inhibition at 10 µM (HOP-62)?
Its inhibition at 10 µM is under 0%.

And the inhibition at 10 µM (HCT-15)?
The inhibition at 10 µM was 18.8%.

What about the inhibition at 10 µM (SF-539) of the same molecule?
Its inhibition at 10 µM is under 0%.

What about the inhibition at 10 µM (SW-620) of the same molecule?
The inhibition at 10 µM was 1.7%.

And the inhibition at 10 µM (NCI-H522)?
The inhibition at 10 µM was 16.4%.

What about the inhibition at 10 µM (SK-OV-3) of the same molecule?
The inhibition at 10 µM was under 0%.

What about the inhibition at 10 µM (786-0) of the same molecule?
The inhibition at 10 µM was 2.53%.

What about the inhibition at 10 µM (T-47D) of the same molecule?
The inhibition at 10 µM was 23.1%.

What about the inhibition at 10 µM (MDA-MB-468) of the same molecule?
Its inhibition at 10 µM is 23.7%.

What about the inhibition at 10 µM (SF-268) of the same molecule?
The inhibition at 10 µM was under 0%.

What about the inhibition at 10 µM (IGROV1) of the same molecule?
The inhibition at 10 µM was under 0%.

What about the inhibition at 10 µM (HOP-92) of the same molecule?
Its inhibition at 10 µM is 10.6%.

And the inhibition at 10 µM (COLO 205)?
Its inhibition at 10 µM is under 0%.

What about the inhibition at 10 µM (CAKI-1) of the same molecule?
The inhibition at 10 µM was 13.1%.

And the inhibition at 10 µM (NCI-H322M)?
The inhibition at 10 µM was under 0%.

And the inhibition at 10 µM (EKVX)?
Its inhibition at 10 µM is 12.2%.

And the inhibition at 10 µM (UO-31)?
The inhibition at 10 µM was 22.9%.

And the inhibition at 10 µM (OVCAR-4)?
Its inhibition at 10 µM is 10.3%.

What about the inhibition at 10 µM (RPMI-8226) of the same molecule?
Its inhibition at 10 µM is 14.3%.

What about the inhibition at 10 µM (NCI-H23) of the same molecule?
The inhibition at 10 µM was 7.78%.

What about the inhibition at 10 µM (SNB-75) of the same molecule?
The inhibition at 10 µM was under 0%.

And the inhibition at 10 µM (RXF 393)?
Its inhibition at 10 µM is 3.07%.

And the inhibition at 10 µM (SNB-19)?
Its inhibition at 10 µM is 8.39%.

What about the inhibition at 10 µM (HCT-116) of the same molecule?
The inhibition at 10 µM was 21.8%.

What about the inhibition at 10 µM (MCF7) of the same molecule?
The inhibition at 10 µM was 17.9%.

And the inhibition at 10 µM (SK-MEL-2)?
Its inhibition at 10 µM is 0.52%.

What about the inhibition at 10 µM (OVCAR-5) of the same molecule?
Its inhibition at 10 µM is under 0%.

What about the inhibition at 10 µM (OVCAR-3) of the same molecule?
The inhibition at 10 µM was under 0%.

What about the inhibition at 10 µM (SF-295) of the same molecule?
Its inhibition at 10 µM is 3%.

And the inhibition at 10 µM (DU-145)?
The inhibition at 10 µM was 2.02%.

What about the inhibition at 10 µM (ACHN 1) of the same molecule?
The inhibition at 10 µM was 6.5%.
